Where two headings read alike, the source gives them in different places.
Experiments:
M. tuberculosis InhA = biological target: T1, M. tuberculosis InhA (Mycobacterium tuberculosis, UniProt P9WGR1); test: InhA enzymatic inhibition assay (NADH oxidation at 340 nm); format: biochemical; conditions: for inhibition at 0.01 µM: compound at 10 nM, read-out: InhA enzyme inhibition percentage at 10 nM
T1 construct: made in house; host or cells: E. coli

[1] = biological target: mycobacterium tuberculosis InhA enzyme; design: method as in doi:10.1016/j.molstruc.2020.129148; conditions: literature lead structures; read-out: IC50 (InhA inhibitors, lead structures); cited from earlier work
[2] = 70 nM InhA, 2 h pre-incubation, pH 6.8, 25 °C, 35 μM trans-2-decenoyl-CoA, 200 μM NADH, read-out: IC50, inhibitory effect against InhA

T1 sequence (P9WGR1 whole entry, looked up): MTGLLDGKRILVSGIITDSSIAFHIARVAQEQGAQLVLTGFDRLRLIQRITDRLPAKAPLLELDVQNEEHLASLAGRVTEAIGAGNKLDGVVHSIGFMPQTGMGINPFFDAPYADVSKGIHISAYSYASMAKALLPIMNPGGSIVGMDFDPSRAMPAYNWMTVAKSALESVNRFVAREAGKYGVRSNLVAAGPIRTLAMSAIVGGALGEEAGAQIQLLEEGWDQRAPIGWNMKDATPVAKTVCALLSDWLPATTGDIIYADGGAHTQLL

Structure (SMILES)	melting point [°C]	IC50 (M. tuberculosis InhA; [2]) [nM]	IC50 [1] [nM]	inhibition at 0.01 µM (M. tuberculosis InhA) [%]	IC50 (M. tuberculosis InhA; read-out: IC50, inhibitory effect against InhA, 70 nM InhA, 2 h pre-incubation, pH 6.8, 25 °C, 35 μM trans-2-decenoyl-CoA, 200 μM NADH) [nM]	IC50 (M. tuberculosis InhA) [nM]
Sc1nnc(Cc2ccccc2)n1/N=C/c1cccs1 [4a, 5.-benzyl-4-((thiophen-2-ylmethylene)amino)-2,4-dihydro-3H-1,2,4-triazole-3-thione]	184 to 186	53.2				
C#CCSc1nnc(Cc2ccccc2)n1/N=C/c1cccs1 [5a, (E)-N-(3-benzyl-5-(prop-2-yn-1-ylthio)-4H-1,2,4-triazol-4-yl)-1-(thiophen-2-yl)methanimine]	98	5.61				
CNC(=O)CN(Cc1ccc(F)cc1)C(=O)C[C@H]1CC[C@@H](NC(=O)c2nnn(Cc3ccccc3)c2C)CC1 [Lead structure B]			57			
CC(=O)c1ccc(-n2cc(CSc3nnc(Cc4ccccc4)n3/N=C/c3cccc4c3OCO4)nn2)cc1 [7d]	196			100	0.18	
O=C(O)c1ccc(-n2cc(CSc3nnc(Cc4ccccc4)n3/N=C/c3cccs3)nn2)cc1 [7a, (E)-4-(4-(((5-benzyl-4-((thiophen-2-ylmethylene)amino)-4H-1,2,4-triazol-3-yl)thio)methyl)-1H-1,2,3-triazol-1-yl)benzoic acid]	196	6.18				
O=C(O)c1ccc(-n2cc(CSc3nnc(Cc4ccccc4)n3/N=C/c3ccc(N4CCOCC4)cc3)nn2)cc1 [7e, (E)-4-(4-(((5-benzyl-4-((4-morpholinobenzylidene)amino)-4H-1,2,4-triazol-3-yl)thio)methyl)-1H-1,2,3-triazol-1-yl)benzoic acid]	192			100		0.13
S=c1[nH]nc(Cc2ccccc2)n1/N=C/c1ccc(N2CCOCC2)cc1 [4c, (E)-5-benzyl-4-((4-morpholinobenzylidene)amino)-2,4-dihydro-3H-1,2,4-triazole-3-thione]		8.16				
CC(=O)c1ccc(-n2cc(CSc3nnc(Cc4ccccc4)n3/N=C/c3cccs3)nn2)cc1 [7b]	196					12.5
Sc1nnc(Cc2ccccc2)n1/N=C/c1cccc2c1OCO2 [4b]	164	9.16				
C#CCSc1nnc(Cc2ccccc2)n1/N=C/c1cccc2c1OCO2 [5b, (E)-1-(benzo[d][1,3]dioxol-4-yl)-N-(3-benzyl-5-(prop-2-yn-1-ylthio)-4H-1,2,4-triazol-4-yl)methanimine]	140	0.66		100		
C#CCSc1nnc(Cc2ccccc2)n1/N=C/c1ccc(N2CCOCC2)cc1 [5c]	236	0.23		100		
Cc1nc(C)n(CCCNc2ccc(C(=O)Nc3ccc(F)c(Oc4ccccc4)c3)cn2)n1 [Lead structure A]			906			
O=C(O)c1ccc(-n2cc(CSc3nnc(Cc4ccccc4)n3/N=C/c3cccc4c3OCO4)nn2)cc1 [7c, (E)-4-(4-(((4-((benzo[d][1,3]dioxol-4-ylmethylene)amino)-5-benzyl-4H-1,2,4-triazol-3-yl)thio)methyl)-1H-1,2,3-triazol-1-yl)benzoic acid]	188			100		0.074
CC(=O)c1ccc(-n2cc(CSc3nnc(Cc4ccccc4)n3/N=C/c3ccc(N4CCOCC4)cc3)nn2)cc1 [7f]	198 to 200	0.25		100		

Reference: publication PMC9103244, “Novel Hybrid 1,2,4- and 1,2,3-Triazoles Targeting Mycobacterium Tuberculosis Enoyl Acyl Carrier Protein Reductase (InhA): Design, Synthesis, and Molecular Docking” (International Journal of Molecular Sciences, 2022)
